Results reported in patent US20060116403A1, “Therapeutic target and uses thereof” (priority 2002, published 2006).
Like-named read-outs stand apart in the source and are kept apart here.

Legend:
[1] = tested on: human vascular smooth muscle cells; assay: Size of proteoglycans and cleaved GAG chains by SDS-PAGE; format: cell-based; details: for effect on elongation of GAG chains stimulated by PDGF: PDGF treated cells; for effect on size of GAG chains released from proteoglycans, basal: basal (untreated cells); for effect on proteoglycan size (SDS-PAGE): basal and PDGF treated cells, imatinib 1 μM, genistein/daidzein 100 μM
Protocol: DEAE-Sephacel columns were prepared as previously described 19 and were washed with low salt buffer containing 8 M urea, 0.25 M NaCl, 0.02 M disodium EDTA and 0.5% Triton X-100. The media of 3 identical treatments was pooled and applied to the column. The columns were washed with low salt buffer to remove non-proteoglycan associated radioactivity. Fractions were collected with high salt buffer containing 8 M urea, 3 M NaCl, 0.02 M disodium EDTA and 0.5% Triton X-100.
Samples were prepared for SDS-PAGE by set counts so that the amount of radioactivity applied to the gel was the same for each treatment.
Proteoglycans eluted from DEAE columns and precipitated once with ethanol/potassium acetate solution were treated with sodium borohydride (1 M) in NaOH (50 mM) for 4 h at 45° C. to release the GAG chains. The free GAG chains were precipitated with the ethanol/potassium acetate solution and analyzed for size by SDS-PAGE.
For the estimation of apparent relative masses (MrS) ^14C high molecular weight standards (GIBCO BRL, Grand Island, U.S.A) were run in separate lanes.
The labeled proteoglycans, cleaved chains, xyloside-initiated GAGs and standard proteins were exposed (3 days) to a Fujifilm imaging plate (Fuji Photo Film Co., Japan) and the imaging plate scanned by the Bio-imaging analyzer BAS-1000 MacBas (Fuji Photo Film Co., Japan).

[2] = tested on: human vascular smooth muscle cells (internal mammary artery); assay: 35S-sulfate incorporation into total secreted proteoglycans (CPC precipitation); format: cell-based; details: for inhibition of PDGF-stimulated component of proteoglycan production: imatinib 1 μM, genistein 100 μM
Protocol: The Human Ethics Committee of the Alfred Hospital and Baker Heart Research Institute approved the acquisition of tissue.
Cells were metabolically labeled with [^35S]-sulfate ([…]) for the final 24 h.
(§1) The culture media were collected and each plate rinsed with Dulbecco's PBS (0.25 ml). Aliquots (50 μl) of the media sample were spotted in duplicate on 30×15 mm rectangles of Whatman® 3M chromatography paper (Aldrich, Milwaukee, U.S.A.). The paper was washed five times in a solution containing cetylpyridinium chloride (CPC, 1% w/v) and NaCl (50 mM). Following air drying at room temperature, the paper from each sample was placed in liquid scintillation fluid (Packard, Groningen, The Netherlands) and radioactivity counted in a Beckman Coulter liquid scintillation analyzer (Fullerton, U.S.A). Counts from cells labeled with [^35S]-sulfate and Tran^35SLabel represented total sulfated GAGs and total core protein respectively.

[3] = target: cAbl kinase (Homo sapiens, UniProt P00519); assay: Direct assay of cAbl kinase activity; format: biochemical
Protocol: The direct cAbl kinase inhibitory activity of several compounds was evaluated.

[4] = tested on: human vascular smooth muscle cells; assay: Proteoglycan core protein synthesis (35S-methionine/cysteine, CPC precipitation); format: cell-based
Protocol: as §1
Effects on core protein biosynthesis can be evaluated by metabolically labeling the cells with labeled amino acids (^35S-methionine/cysteine) and using an isolation technique “CPC precipitation” which is specific for isolating proteoglycans. Thus, cells were treated identically to the above experiments but labeled with ^35S-methionine/cysteine. […]. Core protein biosynthesis was stimulated by PDGF (FIG. 5; […].

[5] = tested on: human vascular smooth muscle cells; assay: Xyloside-initiated GAG chain synthesis and size; format: cell-based; details: xyloside 0.5 mM; for effect on increase in size of GAG chains on xyloside, PDGF: PDGF treated cells
Protocol: To study glycosaminoglycan (GAG) synthesis, cells were treated with exogenous xyloside which acts as an artificial and alternative substrate for the enzymes which normally catalyze the initiation of GAG chains on the protein core Nigro J et al (2002)) and Moses, J., Oldberg, A. & Fransson, L. A. Initiation of galactosaminoglycan biosynthesis. Separate galactosylation and dephosphorylation pathways for phosphoxylosylated decorin protein and exogenous xyloside. Eur J Biochem 260, 879-84 (1999)) generating free xyloside-initiated GAG chains. β-D-Xylopyranoside (xyloside) (0.5 mM) was prepared in DMEM with FBS (0.1%) and DMSO (0.1%). […] Cells were metabolically labeled with [^35S]-sulfate (50 μCi/well) for 24 hours.
SDS-PAGE gels were prepared following the procedure of Laemelli (Laemmli, U.K. Cleavage of structural proteins during the assembly of the head of bacteriophage T4. Nature 227, 680-5 (1970)) on 4-13% linear gradient separating gels for intact proteoglycans and 4-20% separating gels for cleaved chains and xyloside-initiated GAGs, with a 3.5% stacking gel. For the estimation of apparent relative masses (MrS) ^14C high molecular weight standards (GIBCO BRL, Grand Island, U.S.A) were run in separate lanes.
Cell cultures supplemented with xyloside synthesize the normal family of proteoglycans but also free GAG chains which are synthesized on the xyloside acting as a “false acceptor” for GAG initiation. […] The analysis of the production of the xyloside-initiated GAG chains therefore represents an independent assay of the activity of the GAG elongation process which normally determine the length of GAGs on proteoglycans. […]. GAG chains produced on xyloside are considerably smaller than free GAG chains synthesized on and released from proteoglycans (compare FIG. 2 right panel with FIG. 3 lower panel). The band at the bottom of the SDS-PAGE is the GAG chains initiated on xyloside. Genistein and daidzein have no effect on the size of the GAGs either under basal or PDGF stimulated conditions. […].

[6] = tested on: human LDL; assay: LDL affinity chromatography of radiolabeled proteoglycans; format: cell-based; details: for effect on increased LDL binding of proteoglycans from PDGF treated cells: PDGF 50 ng/ml, imatinib 1 μM, genistein 100 μM
Protocol: Human blood samples were obtained from healthy subjects. LDL (d=1.019−1.063 g/ml) was purified from blood by sequential density gradient ultracentrifugation as described by Heinecke, J. W., Baker, L., Rosen, H. & Chait, A. Superoxide-mediated modification of low density lipoprotein by arterial smooth muscle cells. J Clin Invest 77, 757-61 (1986). The interaction of total pooled intact proteoglycan preparations with native human LDL was assessed using LDL affinity chromatography, providing a measure of binding capacity. […] Sepharose was prepared in the presence of excess heparin to protect the GAG binding sites. The columns were washed with HEPES buffer above and then with 1M NaCl to remove heparin. Each sample (80,000 cpm) was applied to a separate column. The columns were washed extensively with low salt buffer then eluted (5×0.5 ml) with 1M NaCl to elute bound proteoglycans. Finally the columns were stripped with high salt, high urea buffer. The aggregate radioactivity retained by the LDL column after extensive washing and eluted with 1M NaCl was determined as the binding capacity for the column.
We observed a 36% increase in the binding capacity of proteoglycans in PDGF treated cells compared to untreated cells (FIG. 5).

[7] = tested on: K562 cells; assay: Inhibition of K562 cell proliferation; format: cell-based
Description: K562 cells are Philadelphia chromosome tumour cells in which constitutively active cAbl (but possibly other pathways) drive the cell proliferation. […] These cells provide an assay to discriminate inhibition of tyrosine kinases in a whole cell assay.

[8] = tested on: vascular smooth muscle cells; details: cited from earlier work
[9] = tested on: saphenous vein vascular smooth muscle cells; details: saphenous vein VSMC
Protocol: Cultures of vascular smooth muscle cells from human saphenous veins samples obtained (with Ethics approval) from Cardiac Theatres at the Alfred Hospital were prepared.

[10] = tested on: human LDL; assay: Gel Mobility Shift Assay of core protein labelled proteoglycans binding to human LDL
Protocol: A new approach to these studies is now used in which the proteoglycan core proteins are metabolically radio-labelled and used to study the binding of human LDL. Cells are incubated with Translabel® (ICN Biochemicals) (^35S-methioinine and cysteine amino acids) and the amino acids are incorporated into the core proteins.
Core protein labelled proteoglycans were isolated by DEAE sepharose ion exchange chromatography and then the binding to human LDL was studied in a Gel Mobility Shift Assay in which a set amount of radiolabeled proteoglycan is incubated with various amounts of LDL and then the bound and free proteoglycans are separated on a flat bed agarose gel.

[11] = tested on: vascular smooth muscle cells; assay: Sepharose 6B size exclusion chromatography of cleaved GAG chains; format: cell-based, human
[12] = tested on: vascular smooth muscle cells; assay: 35S-sulphate incorporation into proteoglycans, cAbl siRNA transfection compared with imatinib; format: cell-based, human; details: culture media
Description: An independent method is available to examine this question by using molecular biology techniques to block the expression of the mRNA for cAbl and thus reduce the actual level of cAbl mRNA, protein and enzyme activity in the cell. A new technique of post-transcriptional gene silencing known as small inhibitory RNA (or siRNA) has recently been developed in which cells are transfected with an siRNA which leads to the breakdown and loss of the target mRNA in this case cAbl RNA. This is a highly specific technique which complements the pharmacological approach. […] Target sequences for siRNA have been identified from the scanning of the coding region of the human c-Abl gene. Four of these potential sites were selected and compared to a genome database to identify any sequence homology to other genes. Following identification of target sequences, sense and anti-sense siRNA oligonucleotide templates are constructed consisting of 21 nucleotides encoding the siRNA and 8 nucleotides complementary to a promoter primer. […] Both sense and anti-sense siRNA oligonucleotide templates were hybridised to a promoter primer. Double stranded siRNA transcription templates was created by extending the hybridised oligonucleotides using the Klenow fragment of DNA polymerase and RNA polymerase used to transcribe the sense and anti-sense siRNA templates which were then hybridised to dsRNA. […]

[13] = Homo sapiens, 24 h, read-out: inhibition of basal proteoglycan production

Sequence of cAbl kinase (P00519 whole entry): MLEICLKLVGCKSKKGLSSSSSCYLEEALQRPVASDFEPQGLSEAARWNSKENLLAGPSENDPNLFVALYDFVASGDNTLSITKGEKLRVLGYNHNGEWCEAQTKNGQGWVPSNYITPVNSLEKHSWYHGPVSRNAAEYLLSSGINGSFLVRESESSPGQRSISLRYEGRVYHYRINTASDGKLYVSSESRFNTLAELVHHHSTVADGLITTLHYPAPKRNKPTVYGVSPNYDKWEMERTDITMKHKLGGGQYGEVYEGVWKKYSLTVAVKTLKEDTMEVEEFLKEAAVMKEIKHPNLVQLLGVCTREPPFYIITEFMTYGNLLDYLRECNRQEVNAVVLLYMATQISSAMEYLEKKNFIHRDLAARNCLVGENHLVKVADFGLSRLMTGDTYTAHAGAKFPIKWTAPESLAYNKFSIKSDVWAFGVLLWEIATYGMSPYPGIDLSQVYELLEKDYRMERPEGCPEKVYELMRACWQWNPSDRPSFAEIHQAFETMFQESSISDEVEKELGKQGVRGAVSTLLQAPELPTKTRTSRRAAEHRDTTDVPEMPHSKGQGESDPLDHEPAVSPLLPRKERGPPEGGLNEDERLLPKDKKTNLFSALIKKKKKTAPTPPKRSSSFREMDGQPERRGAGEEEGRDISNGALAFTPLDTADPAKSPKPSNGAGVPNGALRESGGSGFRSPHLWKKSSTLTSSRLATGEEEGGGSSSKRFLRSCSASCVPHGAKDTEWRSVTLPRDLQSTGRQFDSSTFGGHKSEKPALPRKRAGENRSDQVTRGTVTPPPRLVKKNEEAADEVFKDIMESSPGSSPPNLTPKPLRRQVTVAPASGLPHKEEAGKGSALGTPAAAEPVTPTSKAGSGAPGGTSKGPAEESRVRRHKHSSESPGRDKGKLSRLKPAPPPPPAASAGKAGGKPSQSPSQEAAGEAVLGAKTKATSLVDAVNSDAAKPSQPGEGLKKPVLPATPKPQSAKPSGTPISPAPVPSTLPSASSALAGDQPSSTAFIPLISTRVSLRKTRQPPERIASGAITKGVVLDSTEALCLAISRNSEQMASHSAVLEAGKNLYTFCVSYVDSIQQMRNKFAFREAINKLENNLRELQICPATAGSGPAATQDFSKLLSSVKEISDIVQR

Compound	inhibition of cAbl kinase activity [3]	effect on PDGF-stimulated core protein biosynthesis [4]	effect on basal proteoglycan core protein biosynthesis [4]	effect on elongation of GAG chains stimulated by PDGF [1]	effect on size of GAG chains released from proteoglycans, basal [1]	effect on proteoglycan size (SDS-PAGE) [1]	effect on combined production of proteoglycans and xyloside-initiated GAG chains [5]	effect on increase in size of GAG chains on xyloside, PDGF [5]	effect on size of GAG chains on xyloside, basal [5]	inhibition of PDGF-stimulated component of proteoglycan production ([2]; PDGF 50 ng/ml)	effect on increased LDL binding of proteoglycans from PDGF treated cells [6]	further results
CO[C@H]1[C@@H](OC)C[C@H](C)[C@@H](OC)C2=CC(=O)C=C(NC(=O)/C(C)=C/C=C\[C@H](OC)[C@@H](OC(N)=O)/C(C)=C/[C@@H]1C)C2=O [herbimycin]	little activity	–	–	–	–	–	–	–	–	–	–	effect on size of GAGs on proteoglycan (SDS-PAGE) ([1]; herbimycin): does not reduce; effect on radiosulfate incorporation into proteoglycans ([2]; herbimycin): does not inhibit; inhibition of cAbl kinase activity ([3]; listed as Herbimycin): no inhibitory activity
O=c1c(-c2ccc(O)cc2)coc2cc(O)ccc12 [daidzein, 4′,7-dihydroxyisoflavone]	little activity	attenuated	considerably less active than genistein	no effect	no effect	no effect	essentially identical	no effect	no effect	–	–	inhibition of basal proteoglycan production ([2]; basal, daidzein 100 μM): little inhibitory activity
O=c1c(-c2ccc(O)cc2)coc2cc(O)cc(O)c12 [genistein, 4′,5,7-trihydroxyisoflavone]	little activity	attenuated	reduced	no effect	no effect	no effect	essentially identical	no effect	no effect	less inhibitory than imatinib	does not prevent	inhibition at 100 µM [2, 13]: 64%; concentration of maximal effect on proteoglycan production ([2]; dose response curves): 100 µM; inhibition of K562 cell proliferation [7]: little or no inhibitory activity; effect on total proteoglycan production ([8]; Primate VSMC in culture): inhibited; effect on basal expression of versican mRNA and core protein ([8]; basal): almost completely abolishes; effect on GAG length [8]: no effect; potency against cAbl relative to imatinib (times less potent) [3]: 160 times
Cc1ccc(NC(=O)c2ccc(CN3CCN(C)CC3)cc2)cc1Nc1nccc(-c2cccnc2)n1 [imatinib, 4-[(4-methyl-1-piperazinyl)methyl]-N-[4-methyl-3-[[4-(3-pyridinyl)-2-pyrimidinyl]amino-phenyl]benzamide methanesulfonate]	–	attenuated	very small but not statistically significant inhibitory effect	–	–	–	essentially identical	completely prevented	slightly reduced	totally blocked	completely abolished	effect on GAG length (SDS-PAGE mobility) [9]: shortens; inhibition at 1 µM [2, 13]: 56%; decrease in LDL binding affinity ([10]; basal): three fold
PDGF: human recombinant platelet derived growth factor-BB, growth factor stimulus	–	–	–	–	–	–	–	–	–	–	–	Kav of cleaved GAG chains, PDGF stimulated [11]: 0.45; increase of proteoglycan production ([2]; PDGF 50 ng/ml): approximately two-fold; increase in LDL binding capacity of proteoglycans ([6]; PDGF treated cells compared to untreated cells): 36%; half-maximal saturation concentration of LDL, PDGF stimulated cells ([10]; PDGF stimulated): 25 µg/mL
siRNA (MB 61): siRNA directed to cAbl; anti-sense template 5′-AAGAAAAACTTCATCCACAGA-3′, sense template 5′-AATCTGTGGATGAAGTTTTTC-3′ (antisense AAGAAAAACTTCATCCACAGA; sense AATCTGTGGATGAAGTTTTTC; chemistry not given here; the letters are possibly those of the target site)	–	–	–	–	–	–	–	–	–	–	–	reduction in 35S-sulphate incorporation, PDGF cells ([12]; PDGF stimulated): 50%; inhibition of radiosulphate incorporation, control cells ([12]; control cells, 24 h): 30-40%
